Data on 48 compounds can be found in ChEMBL document CHEMBL2021911 (Bioorg Med Chem Lett, 2012).

Assay [1] has as its target T1, Muscarinic acetylcholine receptor M1 (Homo sapiens, UniProt P11229).
T1 sequence (P11229 whole entry): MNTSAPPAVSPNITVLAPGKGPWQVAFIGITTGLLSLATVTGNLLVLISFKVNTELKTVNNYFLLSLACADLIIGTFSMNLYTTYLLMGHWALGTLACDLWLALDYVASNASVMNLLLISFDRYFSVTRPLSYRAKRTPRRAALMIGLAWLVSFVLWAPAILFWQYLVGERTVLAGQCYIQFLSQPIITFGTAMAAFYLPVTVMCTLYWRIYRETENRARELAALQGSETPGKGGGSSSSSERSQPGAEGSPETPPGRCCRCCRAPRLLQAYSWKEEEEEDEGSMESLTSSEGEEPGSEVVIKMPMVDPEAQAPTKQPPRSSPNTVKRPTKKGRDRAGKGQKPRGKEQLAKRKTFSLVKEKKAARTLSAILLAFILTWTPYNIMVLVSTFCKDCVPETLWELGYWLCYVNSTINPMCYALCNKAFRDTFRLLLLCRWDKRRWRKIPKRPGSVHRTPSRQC
In words: Agonist activity at human muscarinic M1 receptor. It is filed as functional.

The target in assay [2] is T2, Muscarinic acetylcholine receptor M1 (Homo sapiens) (UniProt P11229).
T2 sequence (whole entry): T1 sequence (P11229 whole entry)
Kind of assay: Agonist activity at human muscarinic M1 receptor at 30 uM relative to acetylcholine. It is filed as functional.

Usually EC50 stands for the midpoint of the concentration-response curve. Turning to `CCOC(=O)N1[C@@H]2CC[C@H]1C[C@H](NCCNC(=O)c1cccc(OC)c1)C2`, in assay [1] (read-out: EC50), the 50% effective concentration (EC50) is 3600 nM. This compound yielded an Activity in assay [2] of 33%.

For `CCCC(=O)N1[C@@H]2CC[C@H]1C[C@H](NCCNC(=O)c1ccccc1)C2`, in assay [1], the concentration for a half-maximal effect (EC50) entry is on record as “Not Active”.

Regarding `CC(C)C(=O)N1[C@@H]2CC[C@H]1C[C@H](NCCNC(=O)c1ccccc1)C2`, in assay [1] (read-out: EC50), the 50% effective concentration (EC50) was 5400 nM. In assay [2], this compound registered an Activity of 23%. On the same counts, the results for `CCOC(=O)N1C2CCC1CC(N1CC[C@H](NC(=O)c3ccccc3)C1)C2` (mixture of isomers) are 1200 nM and 39%. On the same counts, the results for `CCOC(=O)N1[C@@H]2CC[C@H]1C[C@H](NCCNC(=O)c1ccccc1Cl)C2` are 2300 nM and 37%. On the same counts, the results for `C=CCOC(=O)N1[C@@H]2CC[C@H]1C[C@H](NCCNC(=O)c1ccccc1)C2` are 2000 nM and 40%. As to `CCS(=O)(=O)N1[C@@H]2CC[C@H]1C[C@H](NCCNC(=O)c1ccccc1)C2`, in assay [1], the EC50 entry is reported as “Not Active”. As for `CCOC(=O)N1[C@@H]2CC[C@H]1C[C@H](NCCNC(=O)c1ccc(F)cc1)C2`, in assay [1] (read-out: EC50), the concentration for a half-maximal effect (EC50) came out at 830 nM. This compound also gave an Activity in assay [2] of 54%.

Consider `CCOC(=O)N1[C@@H]2CC[C@H]1C[C@H](NCCNC(=O)N1CCCCC1)C2`, for which the EC50 in assay [1] (read-out: EC50) amounted to 570 nM. In assay [2], this compound showed an Activity of 53%.

On to `CCOC(=O)N1C[C@H]2CC[C@@H](C1)[C@H]2NCCNC(=O)c1cc(F)cc(F)c1`, for which the concentration giving a half-maximal response (EC50) in assay [1] (read-out: EC50) turned out to be 200 nM. The compound further returned an Activity in assay [2] of 53%.

In the case of `CCOC(=O)N1C2CCC1CC(N1CC[C@H](NC(=O)c3ccccc3C)C1)C2` (mixture of isomers), the EC50 in assay [1] (read-out: EC50) is greater than 10000 nM. The Activity in assay [2] turned out to be 22%.

As to `CCOC(=O)N1[C@@H]2CC[C@H]1C[C@H](NCCNC(=O)c1ccncc1)C2`, the concentration giving a half-maximal response (EC50) in assay [1] (read-out: EC50) is greater than 10000 nM. The same compound registered an Activity in assay [2] of 6%. The like results for `CCOC(=O)N1[C@@H]2CC[C@H]1C[C@H](NCCNC(=O)C1CCCCC1)C2` were, in that order, 1500 nM and 34%. For `CCOC(=O)N1C[C@H]2CC[C@@H](C1)[C@H]2NCCNC(=O)c1ccccc1C`, in assay [1] (read-out: EC50), the EC50 came out at 170 nM. Besides, the Activity in assay [2] turned out to be 51%. Regarding `CS(=O)(=O)N1[C@@H]2CC[C@H]1C[C@H](NCCNC(=O)c1ccccc1)C2`, the EC50 result in assay [1] is “Not Active”. Take `CCOC(=O)N1C2CCC1CC(N1CC(NC(=O)c3ccccc3)C1)C2` (mixture of isomers): in assay [1] (read-out: EC50), the concentration for a half-maximal effect (EC50) worked out at 2200 nM. The compound further gave an Activity in assay [2] of 34%. For `CCOC(=O)N1C[C@H]2CC[C@@H](C1)[C@H]2NCCNC(=O)c1cccs1`, in assay [1] (read-out: EC50), the half-maximal effective concentration (EC50) came out at 170 nM. For the same compound, the Activity in assay [2] stood at 54%. On the same counts, the results for `CCOC(=O)N1[C@@H]2CC[C@H]1C[C@H](NCCNC(=O)c1cccc(Cl)c1)C2` are 440 nM and 63%. On the same counts, the results for `CCOC(=O)N1C[C@H]2CC[C@@H](C1)[C@H]2NCCNC(=O)C1CCCCC1` are 1000 nM and 37%. The like results for `CCOC(=O)N1C[C@H]2CC[C@@H](C1)[C@H]2NCCNC(=O)c1cccc(OC)c1` were, in that order, 240 nM and 47%. As to `CCOC(=O)N1[C@@H]2CC[C@H]1CC(NCCNC(=O)c1ccc(C)c(F)c1)C2` (mixture of isomers), the EC50 in assay [1] (read-out: EC50) amounted to 470 nM. Further, in assay [2], the Activity was 40%. Regarding `CCOC(=O)N1[C@@H]2CC[C@H]1C[C@H](NCCNC(=O)N1[C@H](C)CCC[C@@H]1C)C2`, the concentration giving a half-maximal response (EC50) in assay [1] (read-out: EC50) worked out at 2500 nM. The compound further had an Activity in assay [2] of 39%. On the same counts, the results for `CCOC(=O)N1C2CCC1CC(N1CCC[C@H](NC(=O)c3ccccc3C)C1)C2` (mixture of isomers) are 2100 nM and 52%. Consider `CCOC(=O)N1[C@@H]2CC[C@H]1C[C@H](NCCNS(=O)(=O)c1cccc(OC)c1)C2`, for which the EC50 result in assay [1] is reported as “Not Active”. Consider `CCOC(=O)N1[C@@H]2CC[C@H]1C[C@H](NCCNC(=O)c1cccs1)C2`, for which the EC50 in assay [1] (read-out: EC50) came to 1000 nM. The Activity in assay [2] is 33%.

For `CCOC(=O)N1[C@@H]2CC[C@H]1C[C@H](NCCNC(=O)c1ccccc1C(F)(F)F)C2`, in assay [1], the 50% effective concentration (EC50) result was “Not Active”. For the compound `CCOC(=O)N1[C@@H]2CC[C@H]1C[C@H](NCCNC(=O)N1CCCC1)C2`, in assay [1] (read-out: EC50), the EC50 was greater than 10000 nM. Besides, in assay [2], the Activity was 11%. The like results for `CCOC(=O)N1C[C@H]2CC[C@@H](C1)[C@H]2NCCNC(=O)N1CCCCC1` were, in that order, 690 nM and 9%.

Take `CN(C)C(=O)N1[C@@H]2CC[C@H]1C[C@H](NCCNC(=O)c1ccccc1)C2`: the EC50 result in assay [1] is listed as “Not Active”.

Turning to `CCOC(=O)N1C2CCC1CC(N1CC[C@@H](NC(=O)c3ccccc3C)C1)C2` (mixture of isomers), the EC50 in assay [1] (read-out: EC50) stood at 1200 nM. The same compound yielded an Activity in assay [2] of 55%. The like results for `CCOC(=O)N1C[C@H]2CC[C@@H](C1)[C@H]2NCCNC(=O)N1CCOCC1` were, in that order, greater than 10000 nM and 11%. The like results for `CCOC(=O)N1[C@@H]2CC[C@H]1C[C@H](NCCNC(=O)c1cc(F)cc(F)c1)C2` were, in that order, 1900 nM and 43%. The like results for `CCOC(=O)N1C[C@@H]2C(NCCNC(=O)c3ccccc3C)[C@@H]2C1` (stereo partly specified) were, in that order, 4100 nM and 60%. Turning to `CCOC(=O)N1C2CCC1CC(N1CC[C@@H](NC(=O)c3ccccc3)C1)C2` (mixture of isomers), the concentration giving a half-maximal response (EC50) in assay [1] (read-out: EC50) was determined as 320 nM. In assay [2], the Activity came to 62%. The like results for `COC(=O)C12CCC(NCCNC(=O)c3ccccc3)(CC1)CC2` were, in that order, 6200 nM and 18%. On the same counts, the results for `CCOC(=O)N1[C@@H]2CC[C@H]1C[C@H](NCCNC(=O)c1ccccc1C)C2` are 1100 nM and 47%. Turning to `CCOC(=O)N1[C@@H]2CC[C@H]1C[C@H](NCCNC(=O)NC1CC1)C2`, in assay [1], the EC50 entry is “Not Active”. `CCOC(=O)N1C2CCC1CC(N1CCC[C@H](NC(=O)c3ccccc3)C1)C2` (mixture of isomers): the EC50 in assay [1] (read-out: EC50) is greater than 10000 nM. This compound also came in with an Activity in assay [2] of 12%. For `CCOC(=O)N1[C@@H]2CC[C@H]1C[C@H](NCCNC(=O)c1ccc(F)c(F)c1)C2`, in assay [1] (read-out: EC50), the EC50 is 810 nM. This compound also returned an Activity in assay [2] of 50%. On the same counts, the results for `CCOC(=O)N1[C@@H]2CC[C@H]1C[C@H](NCCNC(=O)N1CCOCC1)C2` are 2000 nM and 44%.

As to `CCOC(=O)N1CC[C@H]2[C@H](CCCN2CCNC(=O)c2ccccc2)C1` (relative stereo), the half-maximal effective concentration (EC50) in assay [1] (read-out: EC50) came to 1200 nM. This compound also returned an Activity in assay [2] of 13%.

`COC(=O)N1[C@@H]2CC[C@H]1C[C@H](NCCNC(=O)c1ccccc1)C2`: the concentration for a half-maximal effect (EC50) in assay [1] (read-out: EC50) was greater than 10000 nM. The same compound returned an Activity in assay [2] of 21%.

For the compound `O=C(NCCN[C@@H]1C[C@H]2CC[C@@H](C1)N2C(=O)Oc1ccccc1)c1ccccc1`, the EC50 entry in assay [1] is given as “Not Active”. Consider `CCOC(=O)N1CCC(N2CCC[C@@H](NC(=O)c3ccccc3C)C2)CC1`, for which, in assay [1] (read-out: EC50), the EC50 turned out to be 890 nM. Also, the Activity in assay [2] was 71%. The like results for `O=C(NCCN[C@@H]1C[C@H]2CC[C@@H](C1)N2C(=O)OCc1ccccc1)c1ccccc1` were, in that order, greater than 10000 nM and 7%. As for `CCC(=O)N1[C@@H]2CC[C@H]1C[C@H](NCCNC(=O)c1ccccc1)C2`, the EC50 result in assay [1] is “Not Active”.

For the compound `CCOC(=O)N1CC[C@H]2[C@@H](CCCN2CCNC(=O)c2ccccc2)C1` (relative stereo), the concentration giving a half-maximal response (EC50) in assay [1] (read-out: EC50) came to 3200 nM. Besides, the Activity in assay [2] turned out to be 13%.

As for `CCOC(=O)N1[C@@H]2CC[C@H]1C[C@H](NCCNC(=O)c1ccc[nH]1)C2`, in assay [1], the EC50 result is listed as “Not Active”.
